Measurements from US20250064724A1, “MODULAR FIELD-STABLE BIO-ARTIFICIAL BLOOD SUBSTITUTE” (VIRGINIA COMMONWEALTH UNIVERSITY, priority 2021, published 2025).

Legend:
[1] = test system: platelet IIb/IIIa receptor; settings: in vivo
Text: The hypocoagulable state and functional hypofibrinogenemia that exists immediately after severe blood loss and PEG-20 k resuscitation is mitigated by the concurrent addition of reconstituted lyophilized human fibrinogen (RiaSTAP®). The effects of severe blood loss after hemorrhage leads to direct depletion of clotting factors including fibrinogen. Furthermore, resuscitation with PEG-20 k IV solution causes rapid and long acting volume expansion by the osmotic movement of isotonic fluid from the intracellular and interstitial spaces back into the intravascular space, which further dilutes fibrinogen concentrations. […] Together, these forces tend to dilute out plasma fibrinogen concentrations that likely contribute to both the transient hypocoagulable state and the functional hypofibrinogenemia seen after PEG-20 k resuscitation in severe blood loss. Therefore, it makes sense that a simple add back of fibrinogen to the system after PEG-20 k IV solution resuscitation will correct the defect and improve coagulation and platelet function. […]
Changes in coagulation and platelet function is measured in the controlled lethal shock model in adult anesthetized rats in groups that receive PEG-20 k IV solution alone and those that receive PEG-20 k IV solution and supplemental human fibrinogen (200 mg/kg, IV, in 300 μl LR). […]

[2] = test system: anesthetized rats; settings: 300 mg/kg L-Arginine with 6.8 ml/kg HBOC-201 IV, listed as L-Arg
Text: This hypertension is believed due to the local scavenging of nitric oxide in the vessel wall. As the normal vasodilator tone produced by basal nitric oxide is removed by the HBOC hemoglobin, the vasoconstrictor tone now prevails and the blood pressure rises secondary to vasoconstriction of the resistance vessels.
Studies were designed to test how nitric oxide substrate loading before HBOC prevents or attenuates the NO scavenging effects of the HBOC on physiological, biochemical, and survival outcomes.

[3] = test system: shocked rats; assay: Example 3: PEG-20 k and delayed or nitric oxide modified HBOC in rodent lethal hemorrhagic shock; format: in vivo, rat; settings: Example 3, present tense
Protocol: Rats are bled to 35 mmHg and held there until lactate reaches 9-10 mM, at which time, LVR solutions are given to resuscitate them. Thirty minutes after resuscitation, another 10% blood volume is removed and the plasma component is immediately separated and given back. A loop of distal ileum is exposed and a 1 cm enterotomy is made along the anti-mesenteric border to access the mucosal surface for hourly recordings of capillary blood flow by Orthogonal Polarization Spectral Imaging (OPSI) and for biopsies of bowel mucosa at various times before. The biopsies are used for histological analysis and for nitric oxide metabolism studies ex-vivo in a tissue culture system.
The albumin solution is a control for both the protein and oncotic effects of the HBOC per se and for the delayed volume administration at 2 and 4 hours after the initial PEG-20 k resuscitation. The total volume infusions for these studies is maintained at 6.8 ml/kg to remain in the low volume range (10% estimated blood volume). All surgical preparations are sterile so any animals surviving after 5 hours from resuscitation can be recovered the next day. N=10 rats per group. […]
In both Part 1 and Part 2, the primary measured outcomes include the rate of oxygen debt repayment on the first operative day and the re-accumulation of new oxygen debt the following days in rats that survive the initial 5-hour intra-operative observation period. […] Other secondary outcomes measured in each experiment include MAP, blood labs, intestinal microcirculation measured with orthogonal polarization spectral imaging (OPSI) through a small enterotomy in the distal ileum, plasma Th1 cytokines, terminal bowel histology analysis, and subject survival time. Finally, local tissue production of nitric oxide, nitrosothiols, and nitric oxide metabolites is assessed from serial bowel mucosa biopsies using incubations of tissue in a Dubanoff metabolic incubator and a Sievers-Style chemiluminescence NO analyzer.

[4] = test system: nitric oxide synthase (NOS); settings: cited from earlier work; for blockade of the L-Arginine effect in crystalloid resuscitation: competitive NOS inhibitors
[5] = test system: shocked rats; assay: Example 4: fibrinogen add back after PEG-20 k resuscitation, controlled and uncontrolled hemorrhage in rats; format: in vivo, rat; settings: fibrinogen after PEG-20 k IV solution, controlled or uncontrolled hemorrhagic shock
Protocol: Changes in coagulation and platelet function is measured in the controlled lethal shock model in adult anesthetized rats in groups that receive PEG-20 k IV solution alone and those that receive PEG-20 k IV solution and supplemental human fibrinogen (200 mg/kg, IV, in 300 μl LR). The control group also receives 300 ul LR without RiaSTAP®. Samples of whole rat blood (1.0-ml) are taken at baseline and at various times after resuscitation for thromboelastography (TEG) analysis of coagulation and platelet function. Other assays are done to measure fibrinogen levels, intrinsic and extrinsic coagulation pathway coagulation, and platelet mapping studies are conducted to answer some mechanistic questions about platelet function defects. Samples are collected out to 4 hours, which is the time when coagulation and platelet function begins to return to baseline levels after PEG-20 k resuscitation. Each group uses 10 adult Sprague-Dawley rats.
Coagulation and platelet function outcomes are tested by using a clinically relevant model of mixed polytrauma hemorrhagic shock that involves severe bleeding from both controllable and uncontrollable sources. Our lab has developed a rodent model of severe hemorrhagic shock where tail bleeding (controlled source) is combined with blood loss from an abdominal penetrating injury to the spleen (splenic laceration). […]

[6] = test system: anesthetized rats; settings: literature reference (22); cited from earlier work

polyethylene glycol [PEG-20 k]
coagulopathy on TEG [1]: minor coagulopathy on TEG
time when coagulation and platelet function begins to return to baseline levels [1]: 4 h

N=C(N)NCCC[C@H](N)C(=O)O [L-Arginine]
effect of co-administered L-Arginine on the blood pressure response to HBOC [2]: caused vasodilatation that caused the blood pressure to drop
resuscitation outcome with L-Arginine before HBOC ([3]; after PEG-20 k): Improvements are seen
crystalloid resuscitation outcome with L-Arginine ([4]; severe hemorrhagic shock, earlier work of the lab (20)): dramatically improved

fibrinogen
coagulation outcomes, bleeding times and volumes [5]: reduces bleeding
coagulation outcomes, bleeding times and volumes ([5]; listed as concentrated fibrinogen): significantly improves coagulation outcomes and decreases uncontrolled bleeding times and volumes

N=C(N)NCCC[C@@H](N)C(=O)O (racemic) [D-Arginine]
blockade of the L-Arginine effect with HBOC [3]: this effect is blocked
blockade of the L-Arginine effect in crystalloid resuscitation [4]: blocked

COC(=O)[C@@H](N)CCCNC(=N)N[N+](=O)[O-] [L-NAME, L-Nitro Arginine Methyl Ester]
blockade of the L-Arginine effect with HBOC [3]: this effect is blocked
blockade of the L-Arginine effect in crystalloid resuscitation [4]: blocked
reversal of the L-Arg blood pressure effect by nitric oxide synthetase inhibitor [6]: reversal
